Measured values: US8637510B2, “Morpholinothiazoles as alpha 7 positive allosteric modulators” (Janssen Pharmaceutica NV, priority 2009, dated 2014)

Target: T1, human alpha 7-wt nAChR (Homo sapiens, UniProt P36544)
T1 construct: expressed in transfected cells
Test: Ca2+ flux imaging (FDSS) (Protocol B)
Assay type: cell-based
Conditions: for EC50: potentiation of 100 μM choline, compounds 0.01 μM to 30 μM, read-out: a7-PAM-G_[33]_pEC50 pEC50 (converted); for Emax: efficacy of 100 μM choline defined as 100% in the absence of a PAM, read-out: a7-PAM-G_[33]_Eff_Curve_FI % Efficacy
Procedure: Ca^2+ Flux Imaging (FDSS) (Protocol B)
• Hanks buffered saline solution (HBSS, Invitrogen, Belgium), supplemented with 10 mM HEPES (Invitrogen, Belgium), CaCl2 to a final concentration of 5 mM, 0.1% Bovine serum albumin (Sigma-Aldrich NV, Belgium). b) Calcium-Sensitive Dye—Fluo-4AM • Fluo-4AM (Molecular Probes, USA) was dissolved in DMSO containing 10% Pluronic acid (Molecular Probes, USA) to give a stock solution which was diluted in assay buffer supplemented with 5 mM probenicid (Sigma, Aldrich NV, Belgium) to give a final concentration of 2 μM. c) 384-Well Plates • Black-sided, transparent bottomed 384 well plates coated with poly-D-lysine, PDL pre-coated (Corning, Incorporated, USA) d) Calcium Flux Measurement • A Functional drug screening system (FDSS, Hamamatsu) was used to measure intracellular free-calcium flux signals. Method
Monolayers of human alpha 7-wt nAChR-expressing cells were grown in black-sided, transparent bottomed 384 well plates coated with PDL for 24 hours prior to loading with a fluorescent calcium indicator, fluo-4AM for up to 120 minutes.
PAM activity was detected in real time by applying the compounds to be tested to the loaded cells along with an alpha 7 nicotinic receptor agonist during constant monitoring of cellular fluorescence in a FDSS. Compounds giving peak fluorescent responses greater than the response due to agonist alone, were considered to be alpha 7 nAChR PAMs. The alpha 7 nicotinic receptor agonist was choline, applied at a sub-maximal concentration of 100 μM. In a further setting of the present invention the compounds were applied prior to the alpha 7 nicotinic receptor agonist, in a particular 10 minutes prior to the agonist.
A control response to choline was calculated on each plate from the difference in peak in fluorescence in wells receiving either choline or assay buffer alone. Compounds of the present invention were tested at a concentration range from 0.01 μM to 30 μM. Compounds were considered to have an interesting activity when they potentiated the choline signal at least with 200% when tested at a concentration of 30 μM (the efficacy of 100 μM choline was defined as 100% in the absence of a PAM). An EC50 (or pEC50) was determined as a concentration relating to half the maximal effect, when a clear sigmoidal curve with top plateau was obtained.

T1 sequence (P36544 23-502): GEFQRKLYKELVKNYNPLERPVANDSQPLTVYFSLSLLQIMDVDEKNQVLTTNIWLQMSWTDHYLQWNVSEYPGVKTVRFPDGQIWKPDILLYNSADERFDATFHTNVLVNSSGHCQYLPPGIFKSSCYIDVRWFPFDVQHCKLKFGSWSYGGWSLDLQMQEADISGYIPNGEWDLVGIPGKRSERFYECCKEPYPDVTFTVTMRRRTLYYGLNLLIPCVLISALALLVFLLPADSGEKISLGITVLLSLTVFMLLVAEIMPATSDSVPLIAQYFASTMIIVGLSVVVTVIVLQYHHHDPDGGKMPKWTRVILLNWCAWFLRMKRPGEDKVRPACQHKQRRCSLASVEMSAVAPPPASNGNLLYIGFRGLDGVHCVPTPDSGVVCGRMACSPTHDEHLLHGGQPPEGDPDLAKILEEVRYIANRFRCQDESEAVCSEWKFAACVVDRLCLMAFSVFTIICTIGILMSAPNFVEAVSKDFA

| SMILES | EC50 | Emax |
| --- | --- | --- |
| Cc1cc(-c2sc(N3C[C@@H](C)O[C@@H](C)C3)nc2CNC(=O)c2ccccc2F)cc(C)n1 [Compound 6, N-[[2-[(2R,6S)-2,6-dimethyl-4-morpholinyl]-5-(2,6-dimethyl-4-pyridinyl)-4-thiazolyl]methyl]-2-fluoro-benzamide] | – | 313% |
| Cc1cc(-c2sc(N3C[C@@H](C)O[C@@H](C)C3)nc2CNC(=O)C2CCCC2)cc(C)n1 [Compound 16, N-[[2-[(2R,6S)-2,6-dimethyl-4-morpholinyl]-5-(2,6-dimethyl-4-pyridinyl)-4-thiazolyl]methyl]-cyclopentanecarboxamide] | 22.4 nM | 651% |
| Cc1cc(-c2sc(N3C[C@@H](C)O[C@@H](C)C3)nc2CNC(=O)c2nc(C)oc2C(F)(F)F)cc(C)n1 [Compound 20, N-[[2-[(2R,6S)-2,6-dimethyl-4-morpholinyl]-5-(2,6-dimethyl-4-pyridinyl)-4-thiazolyl]methyl]-2-methyl-5-(trifluoromethyl)-4-oxazolecarboxamide] | 1740 nM | 253% |
| Cc1ccc(C(=O)NCc2nc(N3C[C@@H](C)O[C@@H](C)C3)sc2-c2cc(C)nc(C)c2)c(C)c1 [Compound 21, N-[[2-[(2R,6S)-2,6-dimethyl-4-morpholinyl]-5-(2,6-dimethyl-4-pyridinyl)-4-thiazolyl]methyl]-2,4-dimethyl-benzamide] | 72.4 nM | 572% |
| Cc1cc(-c2sc(N3C[C@@H](C)O[C@@H](C)C3)nc2CNC(=O)c2ccc(Cl)cc2C)cc(C)n1 [Compound 22, 4-chloro-N-[[2-[(2R,6S)-2,6-dimethyl-4-morpholinyl]-5-(2,6-dimethyl-4-pyridinyl)-4-thiazolyl]methyl]-2-methyl-benzamide] | 20 nM | 484% |
| Cc1cc(-c2sc(N3C[C@@H](C)O[C@@H](C)C3)nc2CNC(=O)c2cccc(Cl)c2Cl)cc(C)n1 [Compound 26, 2,3-dichloro-N-[[2-[(2R,6S)-2,6-dimethyl-4-morpholinyl]-5-(2,6-dimethyl-4-pyridinyl)-4-thiazolyl]methyl]-benzamide] | 141 nM | 631% |
| Cc1cc(-c2sc(N3C[C@@H](C)O[C@@H](C)C3)nc2CNC(=O)c2ccccc2)cc(C)n1 [Compound 27, N-[[2-[(2R,6S)-2,6-dimethyl-4-morpholinyl]-5-(2,6-dimethyl-4-pyridinyl)-4-thiazolyl]methyl]-benzamide] | 525 nM | 403% |
| Cc1cc(-c2sc(N3C[C@@H](C)O[C@@H](C)C3)nc2CNC(=O)[C@H]2CCOC2)cc(C)n1 [Compound 28, (3S)-N-[[2-[(2R,6S)-2,6-dimethyl-4-morpholinyl]-5-(2,6-dimethyl-4-pyridinyl)-4-thiazolyl]methyl]tetrahydro-3-furancarboxamide] | 447 nM | 409% |
| Cc1cc(-c2sc(N3C[C@@H](C)O[C@@H](C)C3)nc2CNC(=O)c2sc(C)nc2C)cc(C)n1 [Compound 29, N-[[2-[(2R,6S)-2,6-dimethyl-4-morpholinyl]-5-(2,6-dimethyl-4-pyridinyl)-4-thiazolyl]methyl]-2,4-dimethyl-5-thiazolecarboxamide] | – | 593% |
| COc1ccc(C(=O)NCc2nc(N3C[C@@H](C)O[C@@H](C)C3)sc2-c2cc(C)nc(C)c2)cc1 [Compound 30, N-[[2-[(2R,6S)-2,6-dimethyl-4-morpholinyl]-5-(2,6-dimethyl-4-pyridinyl)-4-thiazolyl]methyl]-4-methoxy-benzamide] | 513 nM | 551% |
| Cc1cc(-c2sc(N3C[C@@H](C)O[C@@H](C)C3)nc2CNC(=O)c2coc(C)n2)cc(C)n1 [Compound 31, N-[[2-[(2R,6S)-2,6-dimethyl-4-morpholinyl]-5-(2,6-dimethyl-4-pyridinyl)-4-thiazolyl]methyl]-2-methyl-4-oxazolecarboxamide] | – | 495% |
| Cc1cc(-c2sc(N3C[C@@H](C)O[C@@H](C)C3)nc2CNC(=O)c2ccc(F)c(C(F)(F)F)c2)cc(C)n1 [Compound 33, N-[[2-[(2R,6S)-2,6-dimethyl-4-morpholinyl]-5-(2,6-dimethyl-4-pyridinyl)-4-thiazolyl]methyl]-4-fluoro-3-(trifluoromethyl)-benzamide] | 275 nM | 519% |

The remaining lines, values ahead:

| EC50 | Emax | SMILES |
| --- | --- | --- |
| 794 nM | – | Cc1cc(-c2sc(N3CC(C)OC(C)C3)nc2CNC(=O)CC2CC2)cc(C)n1 (racemic) [Compound 55, N-[[2-[2,6-dimethyl-4-morpholinyl]-5-(2,6-dimethyl-4-pyridinyl)-4-thiazolyl]methyl]-cyclopropaneacetamide] |
| 234 nM | – | Cc1cc(-c2sc(N3CC(C)OC(C)C3)nc2CNC(=O)c2ccc(F)cc2C)cc(C)n1 (racemic) [Compound 56, N-[[2-[2,6-dimethyl-4-morpholinyl]-5-(2,6-dimethyl-4-pyridinyl)-4-thiazolyl]methyl]-4-fluoro-2-methyl-benzamide] |
| 692 nM | 783% | Cc1cc(-c2sc(N3CC(C)OC(C)C3)nc2CNC(=O)C2CCC2)cc(C)n1 (racemic) [Compound 57, N-[[2-[2,6-dimethyl-4-morpholinyl]-5-(2,6-dimethyl-4-pyridinyl)-4-thiazolyl]methyl]-cyclobutanecarboxamide] |
| 977 nM | – | CCCC(=O)NCc1nc(N2CC(C)OC(C)C2)sc1-c1cc(C)nc(C)c1 (racemic) [Compound 61, N-[[2-[2,6-dimethyl-4-morpholinyl]-5-(2,6-dimethyl-4-pyridinyl)-4-thiazolyl]methyl]-butanamide] |
| 912 nM | – | Cc1cc(-c2sc(N3CC(C)OC(C)C3)nc2CNC(=O)c2conc2C)cc(C)n1 (racemic) [Compound 68, N-[[2-[2,6-dimethyl-4-morpholinyl]-5-(2,6-dimethyl-4-pyridinyl)-4-thiazolyl]methyl]-3-methyl-4-isoxazolecarboxamide] |
| – | 237% | Cc1cc(-c2sc(N3C[C@@H](C)O[C@@H](C)C3)nc2CNC(=O)C2(C)CC2)cc(C)n1 [Compound 34, N-[[2-[(2R,6S)-2,6-dimethyl-4-morpholinyl]-5-(2,6-dimethyl-4-pyridinyl)-4-thiazolyl]methyl]-1-methyl-cyclopropanecarboxamide] |
| – | 247% | Cc1cc(-c2sc(N3C[C@@H](C)O[C@@H](C)C3)nc2CNC(=O)C(C)(C)C)cc(C)n1 [Compound 47, N-[[2-[(2R,6S)-2,6-dimethyl-4-morpholinyl]-5-(2,6-dimethyl-4-pyridinyl)-4-thiazolyl]methyl]-2,2-dimethyl-propanamide] |
| 60.3 nM | 960% | Cc1cc(-c2sc(N3C[C@@H](C)O[C@@H](C)C3)nc2CNC(=O)CCC(C)C)cc(C)n1 [Compound 51, N-[[2-[(2R,6S)-2,6-dimethyl-4-morpholinyl]-5-(2,6-dimethyl-4-pyridinyl)-4-thiazolyl]methyl]-4-methyl-pentanamide] |
| 6170 nM | 582% | Cc1cc(-c2sc(N3C[C@@H](C)O[C@@H](C)C3)nc2CNC(=O)[C@@H]2CCCN2C)cc(C)n1 [Compound 52, (2S)-N-[[2-[(2R,6S)-2,6-dimethyl-4-morpholinyl]-5-(2,6-dimethyl-4-pyridinyl)-4-thiazolyl]methyl]-1-methyl-2-pyrrolidinecarboxamide] |
| 2820 nM | – | COCCC(=O)NCc1nc(N2C[C@@H](C)O[C@@H](C)C2)sc1-c1cc(C)nc(C)c1 [Compound 53, N-[[2-[(2R,6S)-2,6-dimethyl-4-morpholinyl]-5-(2,6-dimethyl-4-pyridinyl)-4-thiazolyl]methyl]-3-methoxy-propanamide] |
